# Literature values as cited in paper PMC7687576 (In Vitro Cellular & Developmental Biology. Animal, 2020).
# Tests used:
# [1] = test system: CYP3A4; conditions: EpiIntestinal tissues; ref Cui et al. [2020]
# [2] = test system: CYP3A4; conditions: Caco-2 cultures; ref Cui et al. [2020]
# [3] = test system: EpiIntestinal tissues; conditions: IL-6 5–20 ng/mL for 72 h; ref Simon et al. [2019]
Compound,amount of 1-hydroxymidazolam (CYP3A4-selective metabolite) detected [1],amount of 1-hydroxymidazolam metabolite detected [2],decrease in CYP450 activity level [3],"reduction of CYP450 mRNA expression (CYP2C19, CYP2C9, CYP3A4) [3]"
Cc1ncc2n1-c1ccc(Cl)cc1C(c1ccccc1F)=NC2 [Midazolam],substantial amount,negligible amount,–,–
IL-6: pro-inflammatory cytokine IL-6,–,–,20–75%,40–50%
